This is an account of results in patent US20260308222A1, “STABILIZED ANALOGUES OF CALCITONIN” (YISSUM RESEARCH DEVELOPMENT COMPANY OF THE HEBREW …, priority 2024, published 2026).

Usually EC50 stands for the midpoint of the concentration-response curve.

The subject of data set [1] is vertebral fracture / acute back pain. The settings on record: cited from earlier work.
The nature of data set [2]: Circular dichroism analysis, percent α-helicity. Format: physicochemical. Particulars: 10 mM phosphate buffer pH 7, SDS; for % α helicity: 10-30 μM peptide, 2 h folding. As for the experimental part: Following synthesis of the calcitonin analogues, the helicity of the calcitonin analogues was assessed by circular dichroism analysis. Far ultraviolet spectra (FIG. 6) were obtained from 195-260 nm on J-180 spectropolarimeter (Jasco) using 10-30 μM of sCT and all analogues in 10 mM phosphate buffer pH 7 and in the presence of sodium dodecyl sulphate (SDS), which were left for 2 h to allow folding. Each spectrum represents the average of 3 scans, and the mean residue ellipticity (θMRE) was calculated according to the following equation: […]
Percentage helicity of peptides as presented in Table 2 was calculated according to the following equation (Sommese, et al. 2010): […]
where n is the number of amino acids in the peptide.
Background: CD spectra are sensitive to the conformation of chiral molecules.

Data set [3] is described as follows: Degradation in simulated gastric fluid (SGF). Format: in vitro ADME. The settings on record: pH 1.3, 37 °C; for SGF t1/2: pepsin 0.2 mg/mL stock; for half-life: simulated gastric fluid, pH 1.3, pepsin 0.2 mg/mL stock, read-out: SGF t1/2. The method, then:
sCT and its analogues were evaluated for their degradation in simulated gastric fluid (SGF). The stock solution of each analogue was prepared by dissolving 2 mg of the peptide in 1 mL water. The stock solution of pepsin enzyme was prepared by dissolving 5 mg of pepsin in 5 mL of 10 mM HCl (1 mg/mL), and then was diluted to a 0.2 mg/mL with 10 mM HCl. 7 For degradation, 34 μL of pepsin (0.2 mg/mL) was added to 100 μL of peptide (2 mg/mL) at pH 1.3 and the reaction incubated at 37° C. To monitor the degradation, 10 μL of the reaction aliquots were taken and quenched with 10 μL of 10 mM NaOH every 30 min for several hours and analyzed by HPLC using XSelect C18 column ([…], 130 A, 4.6×150 mm) with a gradient of 5-70% of 0.1% TFA in MeCN over 20 min with monitoring at 220 nm.

In data set [4] the target is T1, calcitonin receptor (CTR) (Homo sapiens, UniProt P30988).
T1 sequence (P30988 25-474): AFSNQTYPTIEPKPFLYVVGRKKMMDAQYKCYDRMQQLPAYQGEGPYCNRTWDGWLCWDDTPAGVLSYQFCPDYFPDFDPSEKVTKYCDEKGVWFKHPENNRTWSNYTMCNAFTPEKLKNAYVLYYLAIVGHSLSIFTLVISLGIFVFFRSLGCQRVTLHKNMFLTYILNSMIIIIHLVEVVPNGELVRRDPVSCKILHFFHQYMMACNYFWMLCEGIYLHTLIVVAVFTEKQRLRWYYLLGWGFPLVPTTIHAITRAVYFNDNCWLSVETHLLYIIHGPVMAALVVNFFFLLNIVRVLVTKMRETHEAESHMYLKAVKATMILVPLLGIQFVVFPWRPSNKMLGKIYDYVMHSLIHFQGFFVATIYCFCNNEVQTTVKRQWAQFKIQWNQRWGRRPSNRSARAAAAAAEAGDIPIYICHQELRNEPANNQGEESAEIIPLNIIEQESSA
The experiment in a line: Ca^2+ concentration assay, HEK293 CALCR-HiTSeeker cell line. Format: cell-based. Also on record: expressed in transfected cells. The settings on record: HEK293 CALCR-HiTSeeker cells; for EC50: read-out: Ca^2+ EC50.

Data set [5] can be described thus: Degradation in simulated intestinal fluid (SIF). The settings on record: pH 6.8, 37 °C; for half-life: simulated intestinal fluid, pH 6.8, SIF t1/2, pancreatin 2 mg/mL stock.
For data set [6], the target named is T1, calcitonin receptor (CTR). The experiment in a line: cAMP accumulation assay, U2OS Red cAMPNomad-CALCR cell line. It is filed as cell-based. Also on record: expressed in transfected cells; host or cells: U2OS Red cAMPNomad-CALCR. The settings on record: U2OS Red cAMPNomad-CALCR cells; for EC50: overnight incubation, read-out: cAMP EC50.
The test system of data set [7] is human calcitonin receptor (hCTR). The settings on record: Potts Jr., 1992; cited from earlier work.

As for calcitonin, in data set [1] (Chesnut III, et al., 2000), the “vertebral fracture recurrence and pain relief” value was “reduces the risk of vertebral fracture recurrence and provides pain relief for acute back pain caused by vertebral fractures”.
As for `CC(C)C[C@@H]1NC(=O)[C@@H](NC(=O)CNC(=O)[C@H](CC(C)C)NC(=O)[C@@H](NC(=O)[C@@H]2CSSC[C@H](N)C(=O)N[C@@H](CO)C(=O)N[C@@H](CC(N)=O)C(=O)N[C@@H](CC(C)C)C(=O)N[C@@H](CO)C(=O)N[C@@H]([C@@H](C)O)C(=O)N2)C(C)C)CCCCNCc2cc(ccc2O)C[C@@H](C(=O)N2CCC[C@H]2C(=O)N[C@@H](CCCNC(=N)N)C(=O)N[C@H](C(=O)N[C@@H](CC(N)=O)C(=O)N[C@H](C(=O)NCC(=O)N[C@@H](CO)C(=O)NCC(=O)N[C@H](C(=O)N2CCC[C@H]2C(N)=O)[C@@H](C)O)[C@@H](C)O)[C@@H](C)O)NC(=O)[C@H]([C@@H](C)O)NC(=O)[C@H](CCC(N)=O)NC(=O)[C@H](CC(C)C)NC(=O)[C@H](CCCCN)NC(=O)[C@H](Cc2c[nH]cn2)NC(=O)[C@H](CC(C)C)NC(=O)[C@H](CCC(=O)O)NC(=O)[C@H](CCC(N)=O)NC(=O)[C@H](CO)NC1=O` [KaY-1], in data set [2], the “helicity retained following cyclization” value was “retain the high degree of helicity” and the “% α helicity” value worked out at 93.7%. In addition, in data set [3], the “SGF t1/2” value was 191.2 ± 66.1 min and the half-life is 190 min. Moreover, the “half-life in SGF relative to sCT” value in data set [3] (pepsin, vs sCT) is “five-fold longer half-life”. In data set [4], the “Ca^2+ EC50 / efficacy” value was “similar” and the concentration for a half-maximal effect (EC50) was 166 ± 34.8 nM. The “stability in SIF compared to sCT” value in data set [5] (pancreatin, vs sCT) was “did not exhibit any improvements”. The half-life in data set [5] was 7.1 ± 0.7 min. For the same molecule, in data set [6], the “cAMP EC50 / potency” value is “EC50 in the nanomolar range” and the EC50 was 47.6 ± 24.1 nM.
In the case of `CC(C)C[C@H](NC(=O)[C@H](CCCCN)NC(=O)CNC(=O)[C@H](CC(C)C)NC(=O)[C@@H](NC(=O)[C@@H]1CSSC[C@H](N)C(=O)N[C@@H](CO)C(=O)N[C@@H](CC(N)=O)C(=O)N[C@@H](CC(C)C)C(=O)N[C@@H](CO)C(=O)N[C@@H]([C@@H](C)O)C(=O)N1)C(C)C)C(=O)N[C@@H](CO)C(=O)N[C@@H](CCC(N)=O)C(=O)N[C@@H](CCC(=O)O)C(=O)N[C@@H](CC(C)C)C(=O)N[C@@H](Cc1c[nH]cn1)C(=O)N[C@@H](CCCCN)C(=O)N[C@@H](CC(C)C)C(=O)N[C@@H](CCC(N)=O)C(=O)N[C@H](C(=O)N[C@@H](Cc1ccc(O)cc1)C(=O)N1CCC[C@H]1C(=O)N[C@@H](CCCNC(=N)N)C(=O)N[C@H](C(=O)N[C@@H](CC(N)=O)C(=O)N[C@H](C(=O)NCC(=O)N[C@@H](CO)C(=O)NCC(=O)N[C@H](C(=O)N1CCC[C@H]1C(N)=O)[C@@H](C)O)[C@@H](C)O)[C@@H](C)O)[C@@H](C)O` [sCT, reference compound], the “% α helicity” value in data set [2] came out at 98.6%. In data set [3], the “SGF t1/2” value is given as 35.6 ± 0.1 min and the half-life was 35 min. Besides, in data set [7], the “affinity for hCTR” value was “highest affinity for the human calcitonin receptor (hCTR)” and the “potency” value was “highest potency”. Also, in data set [1] (intra-muscular and subcutaneous injections), the “side effects of parenteral sCT” value is “gastrointestinal (GI) disturbances and injection site reactions”. Also, in data set [4], the “Ca^2+ EC50 / efficacy” value was “similar” and the half-maximal effective concentration (EC50) is 87 ± 17.5 nM. For the same molecule, in data set [5], the half-life was 7.1 ± 0.7 min. Besides, in data set [6], the “cAMP EC50 / potency” value is given as “EC50 in the nanomolar range” and the EC50 was 13.5 ± 4.5 nM.
